# “And” between values parts separate entries of the source, which are not always exact repeats. Identical values can stand only once.
# Experiments:
# [1] = test system: HepG2 cells; assay: Phospholipidosis in HepG2 cells; assay type: cell-based; settings: 0–100 µM
# [2] = biological target: Estrogen ERα (Homo sapiens, UniProt P03372); assay: Eurofins panel 226010; assay type: binding
# [3] = biological target: Histamine H3 (Homo sapiens, UniProt Q9Y5N1); assay: Eurofins panel 239820; assay type: binding
# Histamine H3, sequence (Q9Y5N1 whole entry): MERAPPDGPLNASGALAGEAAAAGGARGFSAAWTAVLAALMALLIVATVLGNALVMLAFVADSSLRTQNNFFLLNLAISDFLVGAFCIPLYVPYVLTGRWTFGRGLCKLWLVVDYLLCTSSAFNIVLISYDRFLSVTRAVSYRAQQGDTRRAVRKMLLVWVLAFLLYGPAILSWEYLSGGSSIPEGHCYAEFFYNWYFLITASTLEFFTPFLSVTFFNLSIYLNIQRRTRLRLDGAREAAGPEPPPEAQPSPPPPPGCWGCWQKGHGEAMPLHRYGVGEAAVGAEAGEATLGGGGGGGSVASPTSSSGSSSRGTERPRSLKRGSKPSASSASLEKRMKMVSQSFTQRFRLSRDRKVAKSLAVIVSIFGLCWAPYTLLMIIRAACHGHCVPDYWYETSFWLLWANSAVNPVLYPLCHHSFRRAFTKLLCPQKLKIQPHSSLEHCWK
# [4] = biological target: Tachykinin NK1 (Homo sapiens, UniProt P25103); assay: Eurofins panel 255520; assay type: binding
# [5] = biological target: Dopamine D3 (Homo sapiens, UniProt P35462); assay: Eurofins panel 219800; assay type: binding
# Dopamine D3, sequence (P35462 whole entry): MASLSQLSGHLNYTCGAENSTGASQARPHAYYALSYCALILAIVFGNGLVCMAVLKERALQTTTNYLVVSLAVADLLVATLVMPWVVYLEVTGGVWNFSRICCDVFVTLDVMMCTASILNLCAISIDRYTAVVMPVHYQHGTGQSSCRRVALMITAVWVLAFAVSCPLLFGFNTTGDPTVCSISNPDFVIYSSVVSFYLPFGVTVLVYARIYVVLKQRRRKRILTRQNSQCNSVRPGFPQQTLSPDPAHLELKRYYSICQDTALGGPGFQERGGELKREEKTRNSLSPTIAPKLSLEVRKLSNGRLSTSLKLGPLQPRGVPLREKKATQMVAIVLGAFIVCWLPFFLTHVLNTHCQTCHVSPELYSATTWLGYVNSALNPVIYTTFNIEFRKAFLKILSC
# [6] = test system: Purinergic P2Y; assay: Eurofins panel 268810; assay type: binding, rat; settings: 10 µM
# [7] = biological target: Epidermal Growth Factor (EGF) (Homo sapiens, UniProt P00533); assay: Eurofins panel 225510; assay type: binding
# [8] = test system: Imidazoline I2, Central; assay: Eurofins panel 241000; assay type: binding, rat; settings: 10 µM
# [9] = biological target: GABAB1A (Homo sapiens, UniProt Q9UBS5); assay: Eurofins panel 228610; assay type: binding
# [10] = test system: keratinocytes; assay: RNASeq transcriptome analysis, keratinocytes; assay type: cell-based, human; settings: 24 hrs of treatment
# [11] = biological target: Melatonin MT1 (Homo sapiens, UniProt P48039); assay: Eurofins panel 251600; assay type: binding
# Melatonin MT1, sequence (P48039 whole entry): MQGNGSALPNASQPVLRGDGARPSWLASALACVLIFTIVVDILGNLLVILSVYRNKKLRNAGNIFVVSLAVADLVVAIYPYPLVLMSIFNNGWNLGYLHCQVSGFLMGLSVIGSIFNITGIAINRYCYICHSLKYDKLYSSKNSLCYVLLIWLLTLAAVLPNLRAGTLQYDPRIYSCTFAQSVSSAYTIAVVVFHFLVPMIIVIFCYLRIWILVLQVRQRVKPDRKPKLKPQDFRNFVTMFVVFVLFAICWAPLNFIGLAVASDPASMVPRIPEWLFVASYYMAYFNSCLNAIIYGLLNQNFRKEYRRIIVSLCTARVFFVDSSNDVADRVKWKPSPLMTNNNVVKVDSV
# [12] = biological target: Neuropeptide Y Y2 (Homo sapiens, UniProt P49146); assay: Eurofins panel 257110; assay type: binding
# Neuropeptide Y Y2, sequence (P49146 whole entry): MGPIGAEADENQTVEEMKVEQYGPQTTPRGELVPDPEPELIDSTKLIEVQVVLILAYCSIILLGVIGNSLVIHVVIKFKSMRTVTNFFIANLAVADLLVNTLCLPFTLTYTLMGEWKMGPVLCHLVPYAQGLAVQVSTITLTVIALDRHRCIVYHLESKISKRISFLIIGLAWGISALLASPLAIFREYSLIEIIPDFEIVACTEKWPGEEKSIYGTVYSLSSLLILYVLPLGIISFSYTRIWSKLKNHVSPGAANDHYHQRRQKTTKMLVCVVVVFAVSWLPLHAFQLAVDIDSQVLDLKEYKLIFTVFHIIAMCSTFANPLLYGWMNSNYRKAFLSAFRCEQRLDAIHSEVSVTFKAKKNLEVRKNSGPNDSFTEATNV
# [13] = test system: Thyroid Hormone; assay: Eurofins panel 285900; assay type: binding, rat; settings: 10 µM
# [14] = biological target: Transporter, GABA (Rattus norvegicus, UniProt P23978); assay: Eurofins panel 226400; assay type: binding
# [15] = test system: Calcium Channel L-Type, Benzothiazepine; assay: Eurofins panel 214510; assay type: binding, rat; settings: 10 µM
# [16] = test system: primary human fibroblasts; assay: Collagen crosslinking in vitro, scar-in-a-jar, LC-MS/MS; assay type: cell-based; set-up: PYD: unit not given beside the values; HLNL / DHLNL / DPD: unit not given here; settings: 11 days, biological replicates
# Protocol: To determine the effects of PXS-4787 on collagen cross-link formation, primary human fibroblasts from six different participants (six biological replicates) were cultured for 11 days using ‘scar-in-a-jar’ conditions in the presence of 0, 1, and 10 µM of inhibitor. Liquid chromatography with tandem mass spectrometry (LC-MS/MS) was used to measure hydroxyproline and cross-link concentrations in these samples. Hydroxyproline concentration provides a close estimate of collagen concentration as it is present in high concentrations in collagens and is critical to fibril formation.
# Primary scar fibroblasts were seeded in a complete media at density 75 × 10^4 cells per well in a T-25 tissue culture flask at 37 °C and 5% CO2. After 16 h the complete media was replaced by the stimulated media ([…] Ficoll 70 and (25 mg/ mL) Ficoll 400, 5 ng/mL TGF-β1, 0.5% FBS, […] L-ascorbic acid-2-phosphate) in DMEM-Glutamax™ supplemented with 0.5% FBS and 1% Penicillin/ Streptomycin and 1 and 10 µM concentrations of PXS-4787 for 11 days to allow time for sufficient crosslinking of extracellular collagen. After 11 days, the media was aspirated and cells were trypsinized for 30 min and reduced with 12 mg/mL Sodium Borohydride in 20 mM Sodium Hydroxide solution followed and incubated for 30 min at room temperature. The pH of the solution was made acidic using 50 µL of neat acetic acid. The solution was centrifuged at 20,000g for 15 min at 4 °C followed by three washes with MilliQ water and samples processed for crosslinking analysis.
# Cell pellets or isolated tissue samples were completely hydrolyzed in 1.5 mL 6 M hydrochloric acid for 24 h at 105 °C. After complete hydrolysis, samples were dried using a vacuum dryer and reconstituted using 200 µL MilliQ water. The sample clean-up was performed using solid-phase extraction method which uses C18 and SCX solid-phase extraction cartridges for sample purification. The samples were run on UPLC-MS-MS (Mass Spectrometer: Thermo Scientific TSQ Endura Triple quadrupole, UPLC: Thermo Scientific Dionex UltiMate 3000) using Agilent RRHD SB-C18,2.1x50mm,1.8um analytical column and solvent A: 10 mM ammonium formate, 0.1% formic acid, 0.1% HFBA in H2O and solvent B: 10 mM ammonium formate, 0.1% formic acid, 0.1% HFBA in MeOH and analyzed as previously described. Limits of detection are listed in Supplementary Table S4.
# [17] = biological target: Endothelin ETB (Homo sapiens, UniProt P24530); assay: Eurofins panel 224110; assay type: binding
# Endothelin ETB, sequence (P24530 27-442): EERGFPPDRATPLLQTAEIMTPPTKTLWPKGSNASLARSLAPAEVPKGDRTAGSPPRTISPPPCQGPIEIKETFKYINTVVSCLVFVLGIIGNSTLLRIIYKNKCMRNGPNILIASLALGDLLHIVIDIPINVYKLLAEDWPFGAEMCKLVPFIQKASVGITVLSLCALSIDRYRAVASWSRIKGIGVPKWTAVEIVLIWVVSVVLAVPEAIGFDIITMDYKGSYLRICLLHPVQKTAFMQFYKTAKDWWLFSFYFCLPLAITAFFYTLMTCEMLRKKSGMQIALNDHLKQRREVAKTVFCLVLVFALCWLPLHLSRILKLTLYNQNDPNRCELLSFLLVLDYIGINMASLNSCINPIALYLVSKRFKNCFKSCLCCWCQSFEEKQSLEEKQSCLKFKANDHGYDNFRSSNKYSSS
# [18] = biological target: Calcium Channel N-Type (Rattus norvegicus, UniProt Q02294); assay: Eurofins panel 216000; assay type: binding
# Calcium Channel N-Type, sequence (Q02294 whole entry): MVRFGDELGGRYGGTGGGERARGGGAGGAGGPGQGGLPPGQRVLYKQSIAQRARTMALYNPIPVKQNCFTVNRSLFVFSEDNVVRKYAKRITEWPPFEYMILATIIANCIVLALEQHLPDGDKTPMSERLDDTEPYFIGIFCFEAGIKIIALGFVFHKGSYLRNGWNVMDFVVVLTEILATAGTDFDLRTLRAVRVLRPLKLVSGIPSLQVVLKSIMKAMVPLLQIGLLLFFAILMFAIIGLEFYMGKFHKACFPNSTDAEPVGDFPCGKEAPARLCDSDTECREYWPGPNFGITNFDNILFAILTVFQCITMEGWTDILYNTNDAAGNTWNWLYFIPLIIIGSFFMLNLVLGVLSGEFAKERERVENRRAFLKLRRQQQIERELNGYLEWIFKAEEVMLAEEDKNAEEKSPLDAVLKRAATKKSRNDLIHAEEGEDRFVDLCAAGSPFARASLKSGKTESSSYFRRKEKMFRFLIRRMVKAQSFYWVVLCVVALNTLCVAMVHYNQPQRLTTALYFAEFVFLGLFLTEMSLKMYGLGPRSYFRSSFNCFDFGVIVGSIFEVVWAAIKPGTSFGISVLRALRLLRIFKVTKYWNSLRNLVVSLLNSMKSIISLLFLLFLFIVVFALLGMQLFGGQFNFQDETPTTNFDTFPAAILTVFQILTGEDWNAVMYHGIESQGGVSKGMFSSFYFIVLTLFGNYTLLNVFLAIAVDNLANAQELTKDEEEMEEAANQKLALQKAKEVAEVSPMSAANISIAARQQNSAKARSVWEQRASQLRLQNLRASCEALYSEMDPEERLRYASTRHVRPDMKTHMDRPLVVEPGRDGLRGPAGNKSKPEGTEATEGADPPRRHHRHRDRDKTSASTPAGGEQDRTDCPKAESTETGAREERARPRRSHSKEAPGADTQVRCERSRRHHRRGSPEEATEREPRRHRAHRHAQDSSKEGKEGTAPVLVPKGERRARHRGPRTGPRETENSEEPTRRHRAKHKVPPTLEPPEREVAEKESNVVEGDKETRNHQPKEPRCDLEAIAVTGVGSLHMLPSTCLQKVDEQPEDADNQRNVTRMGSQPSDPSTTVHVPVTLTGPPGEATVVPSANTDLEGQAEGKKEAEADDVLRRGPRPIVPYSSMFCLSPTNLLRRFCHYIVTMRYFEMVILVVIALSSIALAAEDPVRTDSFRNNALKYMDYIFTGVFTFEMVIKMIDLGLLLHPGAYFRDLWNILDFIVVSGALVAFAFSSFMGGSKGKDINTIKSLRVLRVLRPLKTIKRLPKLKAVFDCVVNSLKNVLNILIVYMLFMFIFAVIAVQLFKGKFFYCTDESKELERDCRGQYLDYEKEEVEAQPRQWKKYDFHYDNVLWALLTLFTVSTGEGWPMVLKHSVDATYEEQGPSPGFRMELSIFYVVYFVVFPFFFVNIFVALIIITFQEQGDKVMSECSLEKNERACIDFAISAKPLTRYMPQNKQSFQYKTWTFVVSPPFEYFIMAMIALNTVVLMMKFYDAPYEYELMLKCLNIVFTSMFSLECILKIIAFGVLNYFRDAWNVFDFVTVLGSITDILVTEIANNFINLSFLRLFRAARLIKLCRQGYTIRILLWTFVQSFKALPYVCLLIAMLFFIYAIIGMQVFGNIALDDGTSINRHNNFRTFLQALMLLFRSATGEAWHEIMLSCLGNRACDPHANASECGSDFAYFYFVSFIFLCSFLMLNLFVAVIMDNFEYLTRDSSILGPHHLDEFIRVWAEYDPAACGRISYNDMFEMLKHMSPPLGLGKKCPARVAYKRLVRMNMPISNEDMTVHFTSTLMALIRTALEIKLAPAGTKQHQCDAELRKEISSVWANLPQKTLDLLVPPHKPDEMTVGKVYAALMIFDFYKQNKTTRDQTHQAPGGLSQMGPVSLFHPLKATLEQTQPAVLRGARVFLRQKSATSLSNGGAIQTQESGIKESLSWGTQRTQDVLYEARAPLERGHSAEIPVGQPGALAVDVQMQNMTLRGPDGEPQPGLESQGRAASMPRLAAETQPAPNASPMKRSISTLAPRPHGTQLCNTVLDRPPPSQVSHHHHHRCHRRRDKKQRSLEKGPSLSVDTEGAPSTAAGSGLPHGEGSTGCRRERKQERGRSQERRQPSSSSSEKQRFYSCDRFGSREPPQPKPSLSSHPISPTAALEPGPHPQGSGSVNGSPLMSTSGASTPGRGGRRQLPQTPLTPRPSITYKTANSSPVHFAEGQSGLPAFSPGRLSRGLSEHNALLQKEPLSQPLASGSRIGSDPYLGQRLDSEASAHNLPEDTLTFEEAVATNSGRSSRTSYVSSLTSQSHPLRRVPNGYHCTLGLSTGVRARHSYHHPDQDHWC
# [19] = biological target: Bradykinin B2 (Homo sapiens, UniProt P30411); assay: Eurofins panel 212620; assay type: binding
# [20] = biological target: Platelet Activating Factor (PAF) (Homo sapiens, UniProt P25105); assay: Eurofins panel 265010; assay type: binding
# Platelet Activating Factor (PAF), sequence (P25105 whole entry): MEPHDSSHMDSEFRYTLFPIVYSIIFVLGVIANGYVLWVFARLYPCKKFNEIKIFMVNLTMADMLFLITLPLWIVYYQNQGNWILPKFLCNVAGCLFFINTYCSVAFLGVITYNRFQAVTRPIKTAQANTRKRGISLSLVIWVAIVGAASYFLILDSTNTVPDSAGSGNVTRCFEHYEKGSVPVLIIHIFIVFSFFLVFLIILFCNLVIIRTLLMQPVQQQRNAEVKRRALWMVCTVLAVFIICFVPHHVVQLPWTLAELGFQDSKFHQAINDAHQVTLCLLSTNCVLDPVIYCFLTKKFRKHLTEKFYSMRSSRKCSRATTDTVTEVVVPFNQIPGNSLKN
# [21] = test system: Rolipram; assay: Eurofins panel 270000; assay type: binding, rat; settings: 10 µM
# [22] = biological target: Cyclooxygenase COX-1 (Homo sapiens, UniProt P23219); assay: Eurofins panel 116020; assay type: biochemical
# [23] = biological target: Cannabinoid CB2 (Homo sapiens, UniProt P34972); assay: Eurofins panel 217100; assay type: binding
# Cannabinoid CB2, sequence (P34972 whole entry): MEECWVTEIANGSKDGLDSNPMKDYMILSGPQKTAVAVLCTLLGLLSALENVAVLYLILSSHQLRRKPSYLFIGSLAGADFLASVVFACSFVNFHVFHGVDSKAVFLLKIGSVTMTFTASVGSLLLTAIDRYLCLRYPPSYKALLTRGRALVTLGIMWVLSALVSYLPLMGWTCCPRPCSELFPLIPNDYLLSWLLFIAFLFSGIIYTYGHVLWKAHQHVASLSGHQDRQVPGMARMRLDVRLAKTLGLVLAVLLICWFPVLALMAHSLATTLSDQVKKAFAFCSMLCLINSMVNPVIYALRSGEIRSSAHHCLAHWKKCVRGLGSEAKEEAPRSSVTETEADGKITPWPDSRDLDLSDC
# [24] = Caco-2 permeability; assay type: in vitro ADME; settings: human, Caco-2
# Protocol: (§1) The penetration of PXS-6302 across a monolayer of cells was tested using Caco-2 or MDCKII cells transfected with P-glycoprotein (Pgp).
# [25] = test system: Caco-2 cells; assay: Caco-2 permeability; assay type: in vitro ADME
# Protocol: as §1
# [26] = test system: MDCKII cells transfected with P-glycoprotein (Pgp); assay: MDCKII-Pgp permeability; assay type: in vitro ADME; settings: unaffected by the presence of the Pgp-inhibitor
# Protocol: as §1
# [27] = Franz Cell skin permeability assay; assay type: in vitro ADME, human; settings: 3% cream on epidermis of human skin ex vivo
# [28] = LogD; assay type: physicochemical
smiles,measurement,setting,value
NC/C=C(\F)CS(=O)(=O)c1ccccc1 [PXS-4787],phospholipidosis score,[1],0
same,inhibition at 10 µM,[2],3%
same,inhibition at 10 µM,[3],-5%
same,inhibition at 10 µM,[4],10%
same,inhibition at 10 µM,[5],0%
same,% Inh.,[6],2%
same,inhibition at 10 µM,[7],1%
same,% Inh.,[8],-10%
same,inhibition at 10 µM,[9],6%
same,Log2 fold change LOC101927136,[10],3.918
same,Log2 fold change TMOD1,[10],4.799
same,inhibition at 10 µM,[11],-2%
same,inhibition at 10 µM,[12],0%
same,% Inh.,[13],0%
same,inhibition at 10 µM,[14],0%
same,% Inh.,[15],24%
same,DHLNL,[16]; 1 µM,143.775 and 329.16 and 113.02 and 83.13 and 359.48 and 365.16 and 104.82
same,DPD,[16]; 1 µM,2.93 and 49.66 and 7.64 and 1.83 and 44.6 and 15.94 and 5.96
same,HLNL,[16]; 1 µM,2792.14 and 4779.62 and 1377.5 and 1440.95 and 5514.92 and 6254.02 and 873.64
same,HYP (hydroxyproline),[16]; 1 µM,did not reduce and 100208 and 1106205 and 113032 and 54746.7 and 1239040 and 1208884 and 155115
same,PYD,[16]; 1 µM,26.445 and 138.7 and 33.16 and 18.555 and 194.48 and 107.58 and 32.22
same,DHLNL,[16]; 10 µM,74.25 and 254.16 and 91.76 and 55.65 and 288.12 and 246.36 and 90.12
same,DPD,[16]; 10 µM,0 and 24.22 and 4.54 and 21.2 and 6.56 and 3.9
same,HLNL,[16]; 10 µM,trend reduction and 1564.75 and 3443.58 and 1107.32 and 1868.37 and 4501.9 and 4758.54 and 846.68
same,HYP (hydroxyproline),[16]; 10 µM,significantly (p = 0.0385) diminished and 52523.3 and 888147 and 121381 and 44633 and 1404421 and 949167 and 129547
same,PYD,[16]; 10 µM,5.86 and 65.12 and 17 and 7.95 and 92.68 and 46.62 and 20.6
same,inhibition at 10 µM,[17],3%
same,inhibition at 10 µM,[18],0%
same,inhibition at 10 µM,[19],5%
same,inhibition at 10 µM,[20],-11%
same,% Inh.,[21],17%
NC/C=C(\F)C(F)(F)S(=O)(=O)c1ccccc1 [PXS-6302],inhibition at 30 µM,[22],36%
same,inhibition at 30 µM,[23],-4%
same,efflux ratio,[24]; read-out: CaCo2 efflux ratio,0.8
same,Papp,[24]; read-out: CaCo2 permeability Papp,34 ×10⁻⁶ cm/s
same,CaCo2 permeability (class in words),[25],High and high permeability
same,MDCKII-Pgp permeability (class in words),[26],high permeability
same,further increase of concentration in reservoir chamber over the next 14 h,[27],10 fold
same,increase of concentration in reservoir chamber between 2 and 6 h,[27],10 fold
same,logD,[28],1
